biological target: Protein arginine deiminase 4 (PAD4) (Homo sapiens, UniProt Q9UM07); test: PAD4 ammonia release assay; type: biochemical; conditions: PAD4 activity comparison; read-out: PAD4 Ammonia assay IC50
In short: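 Ammonia release from BAEE substrate (2× mix 600 μM) was measured after 60 min at RT, following 15 min enzyme–compound preincubation (PAD4 2× 20 nM; pH 8.0 HEPES, 2 mM CaCl2, TCEP; 1.25% DMSO). Detection used OPA/DTT/EDTA for 120 min. % inhibition was taken versus reference-compound and DMSO controls; IC50 by four-parameter logistic fit.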

Sequence of Protein arginine deiminase 4 (PAD4) (Q9UM07 whole entry): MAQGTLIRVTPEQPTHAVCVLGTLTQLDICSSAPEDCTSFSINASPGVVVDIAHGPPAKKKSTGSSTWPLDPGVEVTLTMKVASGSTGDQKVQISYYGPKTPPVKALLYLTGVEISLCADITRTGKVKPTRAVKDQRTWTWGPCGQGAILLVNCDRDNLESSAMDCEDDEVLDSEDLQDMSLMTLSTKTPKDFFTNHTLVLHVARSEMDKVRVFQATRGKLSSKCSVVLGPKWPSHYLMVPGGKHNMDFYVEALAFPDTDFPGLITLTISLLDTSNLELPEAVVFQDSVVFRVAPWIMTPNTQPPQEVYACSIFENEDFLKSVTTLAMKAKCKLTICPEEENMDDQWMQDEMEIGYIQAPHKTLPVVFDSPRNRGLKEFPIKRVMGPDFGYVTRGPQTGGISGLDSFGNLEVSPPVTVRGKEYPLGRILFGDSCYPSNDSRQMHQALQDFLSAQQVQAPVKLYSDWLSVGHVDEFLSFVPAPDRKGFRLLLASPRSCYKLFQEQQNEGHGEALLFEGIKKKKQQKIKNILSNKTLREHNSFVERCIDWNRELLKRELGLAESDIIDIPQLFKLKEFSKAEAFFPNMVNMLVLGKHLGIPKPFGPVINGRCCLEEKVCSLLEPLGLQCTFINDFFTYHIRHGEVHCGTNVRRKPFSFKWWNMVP

| SMILES | IC50 [nM] |
| --- | --- |
| COc1cc(C(=O)N2CCC[C@@H](N)C2)cc2nc(-c3cc4cccc5c4n3C(C)CN5)n(C)c12 (stereo partly drawn) [Example 65, ((R)-3-aminopiperidin-1-yl)(7-methoxy-1-methyl-2-(3-methyl-2,3-dihydro-1H-pyrrolo[1,2,3-de]quinoxalin-5-yl)-1H-benzo[d]imidazol-5-yl)methanone] | 2600 |
| CCC1CNc2cccc3cc(-c4nc5cc(C(=O)N6C[C@H]7CC[C@@H]6[C@@H]7N)cc(OC)c5n4C)n1c23 (stereo partly drawn) [Example 102, ((1R,4R,7R)-7-amino-2-azabicyclo[2.2.1]heptan-2-yl)(2-(3-ethyl-2,3-dihydro-1H-pyrrolo[1,2,3-de]quinoxalin-5-yl)-7-methoxy-1-methyl-1H-benzo[d]imidazol-5-yl)methanone] | 207 |

same assay, conditions: PAD4 ammonia release assay, BAEE substrate, 60 min at RT; read-out: Average IC50 Abs

| SMILES | IC50 [nM] |
| --- | --- |
| COCCCN1CCn2c(-c3nc4cc(C(=O)N5CCC[C@@H](N)C5)cc(OC)c4n3C)cc3cccc1c32 [Example 21, (R)-(3-aminopiperidin-1-yl)(7-methoxy-2-(1-(3-methoxypropyl)-2,3-dihydro-1H-pyrrolo[1,2,3-de]quinoxalin-5-yl)-1-methyl-1H-benzo[d]imidazol-5-yl)methanone] | 500 to 5000 |
| COc1cc(C(=O)N2C[C@H](N)CC(F)(F)C2)cc2nc(-c3cc4cccc5c4n3CCN5CCCO)n(C)c12 [Example 18, (R)-(5-amino-3,3-difluoropiperidin-1-yl)(2-(1-(3-hydroxypropyl)-2,3-dihydro-1H-pyrrolo[1,2,3-de]quinoxalin-5-yl)-7-methoxy-1-methyl-1H-benzo[d]imidazol-5-yl)methanone] | 500 to 5000 |
| Cn1c(-c2cc3ccc4c(c3n2CC2CC2)CCNC4)nc2cc(C(=O)N3C[C@H]4CC[C@@H]3[C@@H]4N)cc(F)c21 [Example 151, ((1R,4R,7R)-7-amino-2-azabicyclo[2.2.1]heptan-2-yl)(2-(1-(cyclopropylmethyl)-6,7,8,9-tetrahydro-1H-pyrrolo[2,3-f]isoquinoline-2-yl)-7-fluoro-1-methyl-1H-benzo[d]imidazol-5-yl)methanone] | 500 to 5000 |
| COc1cc(C(=O)N2CCC[C@@H](N)C2)cc2nc(-c3cc4cccc5c4n3C(C)CN5)n(C)c12 (stereo partly drawn) [Example 65, ((R)-3-aminopiperidin-1-yl)(7-methoxy-1-methyl-2-(3-methyl-2,3-dihydro-1H-pyrrolo[1,2,3-de]quinoxalin-5-yl)-1H-benzo[d]imidazol-5-yl)methanone] | 500 to 5000 |
| COc1cc(C(=O)N2CCC3(CC3N)C2)cc2nc(-c3cc4cccc5c4n3CCN5CCCO)n(CC3CC3)c12 (centres unmarked) [Example 52, (1-amino-5-azaspiro[2.4]heptan-5-yl)(1-(cyclopropylmethyl)-2-(1-(3-hydroxypropyl)-2,3-dihydro-1H-pyrrolo[1,2,3-de]quinoxalin-5-yl)-7-methoxy-1H-benzo[d]imidazol-5-yl)methanone] | > 5000 |
| Cn1c(-c2cc3cccc4c3n2C(C2CC2)CN4)nc2cc(C(=O)N3C[C@H]4CC[C@@H]3[C@@H]4N)cc(F)c21 (mixture of isomers) [Example 108, ((1R,4R,7R)-7-amino-2-azabicyclo[2.2.1]heptan-2-yl)(2-(3-cyclopropyl-2,3-dihydro-1H-pyrrolo[1,2,3-de]quinoxalin-5-yl)-7-fluoro-1-methyl-1H-benzo[d]imidazol-5-yl)methanone] | ≤ 100 |
| Cn1c(-c2cc3ccc4c(c3n2CC2CC2)CC(=O)N4)nc2cc(C(=O)N3C[C@H]4CC[C@@H]3[C@@H]4N)cc(F)c21 [Example 145, 2-(5-((1R,4R,7R)-7-amino-2-azabicyclo[2.2.1]heptane-2-carbonyl)-7-fluoro-1-methyl-1H-benzo[d]imidazol-2-yl)-1-(cyclopropylmethyl)-6,8-dihydropyrrolo[2,3-e]indol-7(1H)-one] | 500 to 5000 |
| COc1cc(C(=O)N2CCC[C@@H](N)C2)cc2nc(-c3cc4cccc5c4n3CCN5CCCNC(=O)NC3CC3)n(C)c12 [Example 5, (R)-1-(3-(5-(5-(3-aminopiperidine-1-carbonyl)-7-methoxy-1-methyl-1H-benzo[d]imidazol-2-yl)-2,3-dihydro-1H-pyrrolo[1,2,3-de]quinoxalin-1-yl)propyl)-3-cyclopropylurea] | 500 to 5000 |
| CCC1CC(=O)c2cccc3cc(-c4nc5cc(C(=O)N6C[C@H]7CC[C@@H]6[C@@H]7N)cc(F)c5n4C)n1c23 (stereo partly drawn) [Example 139, 2-(5-((1R,4R,7R)-7-amino-2-azabicyclo[2.2.1]heptane-2-carbonyl)-7-fluoro-1-methyl-1H-benzo[d]imidazol-2-yl)-4-ethyl-4,5-dihydro-6H-pyrrolo[3,2,1-ij]quinolin-6-one] | 500 to 5000 |
| CC[C@H]1CN(CCCO)c2cccc3cc(-c4nc5cc(C(=O)N6C[C@H]7CC[C@@H]6[C@@H]7N)cc(F)c5n4CC)n1c23 [Example 98, ((1R,4R,7R)-7-amino-2-azabicyclo[2.2.1]heptan-2-yl)(1-ethyl-2-((S)-3-ethyl-1-(3-hydroxypropyl)-2,3-dihydro-1H-pyrrolo[1,2,3-de]quinoxalin-5-yl)-7-fluoro-1H-benzo[d]imidazol-5-yl)methanone] | ≤ 100 |
| COc1cc(C(=O)N2CCC3CC3(N)C2)cc2nc(-c3cc4cccc5c4n3CCN5CCCO)n(CC3CC3)c12 (centres unmarked) [Example 55, (1-amino-3-azabicyclo[4.1.0]heptan-3-yl)(1-(cyclopropylmethyl)-2-(1-(3-hydroxypropyl)-2,3-dihydro-1H-pyrrolo[1,2,3-de]quinoxalin-5-yl)-7-methoxy-1H-benzo[d]imidazol-5-yl)methanone] | 500 to 5000 |
| CC(C)[C@@H]1CNc2cccc3cc(-c4nc5cc(C(=O)N6C[C@H]7CC[C@@H]6[C@@H]7N)cc(F)c5n4C)n1c23 [Example 105, ((1R,4R,7R)-7-amino-2-azabicyclo[2.2.1]heptan-2-yl)(7-fluoro-2-((R)-3-isopropyl-2,3-dihydro-1H-pyrrolo[1,2,3-de]quinoxalin-5-yl)-1-methyl-1H-benzo[d]imidazol-5-yl)methanone] | 500 to 5000 |
| Cn1c(-c2cc3ccc4c(c3n2CC2CC2)NCC[S+]4[O-])nc2cc(C(=O)N3C[C@H]4CC[C@@H]3[C@@H]4N)cc(F)c21 (stereo partly drawn) [Example 162, ((1R,4R,7R)-7-amino-2-azabicyclo[2.2.1]heptan-2-yl)(2-(9-(cyclopropylmethyl)-4-oxido-1,2,3,9-tetrahydro-[1,4]thiazino[2,3-g]indol-8-yl)-7-fluoro-1-methyl-1H-benzo[d]imidazol-5-yl)methanone] | 500 to 5000 |
| COc1cc(C(=O)N2C[C@H]3CC[C@@H]2[C@@H]3N)cc2nc(-c3cc4cccc5c4n3C(C3CC3)CN5)c(C)n12 (stereo partly drawn) [Example 170, ((1R,4R,7R)-7-amino-2-azabicyclo[2.2.1]heptan-2-yl)(2-(3-cyclopropyl-2,3-dihydro-1H-pyrrolo[1,2,3-de]quinoxalin-5-yl)-5-methoxy-3-methylimidazo[1,2-a]pyridin-7-yl)methanone] | > 5000 |
| CCC1CNc2cccc3cc(-c4nc5cc(C(=O)N6C[C@H]7CC[C@@H]6[C@@H]7N)cc(OC)c5n4C)n1c23 (stereo partly drawn) [Example 102, ((1R,4R,7R)-7-amino-2-azabicyclo[2.2.1]heptan-2-yl)(2-(3-ethyl-2,3-dihydro-1H-pyrrolo[1,2,3-de]quinoxalin-5-yl)-7-methoxy-1-methyl-1H-benzo[d]imidazol-5-yl)methanone] | 100 to 500 |
| COc1cc(C(=O)N2CCC[C@](C)(N)C2)cc2nc(-c3cc4cccc5c4n3CCN5CCCO)n(C)c12 [Example 19, (S)-(3-amino-3-methylpiperidin-1-yl)(2-(1-(3-hydroxypropyl)-2,3-dihydro-1H-pyrrolo[1,2,3-de]quinoxalin-5-yl)-7-methoxy-1-methyl-1H-benzo[d]imidazol-5-yl)methanone] | > 5000 |
| COc1cc(C(=O)N2CC[C@@H](F)[C@@H](N)C2)cc2nc(-c3cc4cccc5c4n3CCN5CCCO)n(C)c12 [Example 20, ((3S,4R)-3-amino-4-fluoropiperidin-1-yl)(2-(1-(3-hydroxypropyl)-2,3-dihydro-1H-pyrrolo[1,2,3-de]quinoxalin-5-yl)-7-methoxy-1-methyl-1H-benzo[d]imidazol-5-yl)methanone] | 500 to 5000 |

same assay, conditions: SFC-separated stereoisomer pairs

| SMILES | relative potency of separated isomers in the PAD4 biochemical assay |
| --- | --- |
| CC[C@H]1CN(CCCO)c2cccc3cc(-c4nc5cc(C(=O)N6C[C@H]7CC[C@@H]6[C@@H]7N)cc(F)c5n4CC)n1c23 [Example 98, ((1R,4R,7R)-7-amino-2-azabicyclo[2.2.1]heptan-2-yl)(1-ethyl-2-((S)-3-ethyl-1-(3-hydroxypropyl)-2,3-dihydro-1H-pyrrolo[1,2,3-de]quinoxalin-5-yl)-7-fluoro-1H-benzo[d]imidazol-5-yl)methanone] | more potent than Example 97 |

Reference: patent US20250136607A1 (REGOR PHARMACEUTICALS, INC., priority 2021, published 2025)
